Like-named read-outs stand apart in the source and are kept apart here. Peptide text beside a SMILES is read from it. * marks the point of attachment. MaleimidoPEG4propanoyl = O=C1C=CC(=O)N1CCOCCOCCOCCOCCC(=O)*; Hexanoyl(6-maleimido) = O=C1C=CC(=O)N1CCCCCC(=O)*; X7 = O=C1C=CC(=O)N1CCOCCOCCOCCOCCOCCOCCCCCCC(=O)*; Propanoyl(3-maleimido) = O=C1C=CC(=O)N1CCC(=O)*; X25 = O=C1C=CC(=O)N1CCOCCOCCOCCOCCCCC(=O)*; X34 = O=C1C=CC(=O)N1CCOCCOCCOCCCCCC(=O)*; Maleimidoacetyl = O=C1C=CC(=O)N1CC(=O)*; X33 = O=C1C=CC(=O)N1CCOCCOCCOCCCCC(=O)*; X78 = O=C1C=CC(=O)N1c1ccc(CCCC(=O)*)cc1; X82 = O=C1C=CC(=O)N1CCCCCCCCC(=O)*; X42 = O=C1C=CC(=O)N1CCOCCC(=O)*
Assay: Half-lives and pharmacokinetic parameters of polypeptides vs HM-1
Design: AUC0-∞: concentration or dose not given beside the values
Conditions: in vivo
[1] = read-out: T1/2β (half-life) (converted)

AUC(0-inf)	MRT inf	clearance	half-life (T1/2β (half-life))	AUC(0-inf) (read-out: AUC0-∞)	clearance (read-out: CL (converted))	MRT inf (read-out: MRT0-∞)	half-life [1]	AUC0-∞	Structure (SMILES)	half-life
26700 ± 8240 ng·h/mL	47.9 ± 13.6 h	0.623 mL/min/kg	33.16 ± 0.26 h	–	–	–	–	–	C[C@H](NC(=O)CNC(=O)[C@H](CCCNC(=N)N)NC(=O)CCCCOCCOCCOCCOCCN1C(=O)C=CC1=O)C(=O)N[C@@H](CC(=O)O)C(=O)N[C@@H](CCCNC(=N)N)C(=O)N[C@@H](C)C(=O)NCC(=O)NCC(=O)NCC(=O)NCC(=O)N[C@@H](CCCNC(=N)N)C(=O)NCC(=O)N[C@@H](CC(=O)O)C(=O)O [X73] (X25-RGADRAGGGGRGD-OH)	–
–	–	–	–	29000 ± 6940 ng·h/mL	0.575 mL/min/kg	51.9 ± 10.2 h	35.99 ± 0.29 h	–	C[C@H](NC(=O)CNC(=O)[C@H](CCCNC(=N)N)NC(=O)CN1C(=O)C=CC1=O)C(=O)N[C@@H](CC(=O)O)C(=O)N[C@@H](CCCNC(=N)N)C(=O)N[C@@H](C)C(=O)NCC(=O)NCC(=O)NCC(=O)NCC(=O)N[C@@H](CCCNC(=N)N)C(=O)NCC(=O)N[C@@H](CC(=O)O)C(=O)O [X1] (Maleimidoacetyl-RGADRAGGGGRGD-OH)	–
28300 ± 8140 ng·h/mL	50.7 ± 13.4 h	0.588 mL/min/kg	35.13 ± 0.34 h	–	–	–	–	–	C[C@H](NC(=O)CNC(=O)[C@H](CCCNC(=N)N)NC(=O)CCOCCOCCOCCOCCN1C(=O)C=CC1=O)C(=O)N[C@@H](CC(=O)O)C(=O)N[C@@H](CCCNC(=N)N)C(=O)N[C@@H](C)C(=O)NCC(=O)NCC(=O)NCC(=O)NCC(=O)N[C@@H](CCCNC(=N)N)C(=O)NCC(=O)N[C@@H](CC(=O)O)C(=O)O [X71] (MaleimidoPEG4propanoyl-RGADRAGGGGRGD-OH)	–
–	–	–	–	26900 ± 7090 ng·h/mL	0.62 mL/min/kg	48.1 ± 14.2 h	33.33 ± 0.25 h	–	C[C@H](NC(=O)CNC(=O)[C@H](CCCNC(=N)N)NC(=O)CCOCCN1C(=O)C=CC1=O)C(=O)N[C@@H](CC(=O)O)C(=O)N[C@@H](CCCNC(=N)N)C(=O)N[C@@H](C)C(=O)NCC(=O)NCC(=O)NCC(=O)NCC(=O)N[C@@H](CCCNC(=N)N)C(=O)NCC(=O)N[C@@H](CC(=O)O)C(=O)O [X50] (X42-RGADRAGGGGRGD-OH)	–
33100 ± 7150 ng·h/mL	59.1 ± 11.8 h	0.505 mL/min/kg	40.95 ± 0.27 h	–	–	–	–	–	C[C@H](NC(=O)CNC(=O)[C@H](CCCNC(=N)N)NC(=O)CCCCCCOCCOCCOCCOCCOCCOCCN1C(=O)C=CC1=O)C(=O)N[C@@H](CC(=O)O)C(=O)N[C@@H](CCCNC(=N)N)C(=O)N[C@@H](C)C(=O)NCC(=O)NCC(=O)NCC(=O)NCC(=O)N[C@@H](CCCNC(=N)N)C(=O)NCC(=O)N[C@@H](CC(=O)O)C(=O)O [X89] (X7-RGADRAGGGGRGD-OH)	–
32800 ± 7110 ng·h/mL	58.8 ± 13.1 h	0.508 mL/min/kg	40.73 ± 0.28 h	–	–	–	–	–	C[C@H](NC(=O)CNC(=O)[C@H](CCCNC(=N)N)NC(=O)CCCc1ccc(N2C(=O)C=CC2=O)cc1)C(=O)N[C@@H](CC(=O)O)C(=O)N[C@@H](CCCNC(=N)N)C(=O)N[C@@H](C)C(=O)NCC(=O)NCC(=O)NCC(=O)NCC(=O)N[C@@H](CCCNC(=N)N)C(=O)NCC(=O)N[C@@H](CC(=O)O)C(=O)O [X39] (X78-RGADRAGGGGRGD-OH)	–
31600 ± 8030 ng·h/mL	56.4 ± 11.6 h	0.528 mL/min/kg	39.09 ± 0.28 h	–	–	–	–	–	C[C@H](NC(=O)CNC(=O)[C@H](CCCNC(=N)N)NC(=O)CCCCCOCCOCCOCCN1C(=O)C=CC1=O)C(=O)N[C@@H](CC(=O)O)C(=O)N[C@@H](CCCNC(=N)N)C(=O)N[C@@H](C)C(=O)NCC(=O)NCC(=O)NCC(=O)NCC(=O)N[C@@H](CCCNC(=N)N)C(=O)NCC(=O)N[C@@H](CC(=O)O)C(=O)O [X67] (X34-RGADRAGGGGRGD-OH)	–
–	–	–	–	27900 ± 6880 ng·h/mL	0.597 mL/min/kg	50 ± 10.7 h	34.64 ± 0.3 h	–	CC(C)[C@H](NC(=O)[C@H](C)NC(=O)CNC(=O)[C@H](CCCNC(=N)N)NC(=O)CCN1C(=O)C=CC1=O)C(=O)N[C@@H](CC(=O)O)C(=O)N[C@@H](CCCNC(=N)N)C(=O)N[C@@H](C)C(=O)NCC(=O)NCC(=O)NCC(=O)NCC(=O)N[C@@H](CCCNC(=N)N)C(=O)NCC(=O)N[C@@H](CC(=O)O)C(=O)O [P9] ({Propanoyl(3-maleimido)}-RGAVDRAGGGGRGD-OH; C-terminus assumed)	–
27900 ± 7570 ng·h/mL	50 ± 12.6 h	0.597 mL/min/kg	34.68 ± 0.31 h	–	–	–	–	–	C[C@H](NC(=O)CNC(=O)[C@H](CCCNC(=N)N)NC(=O)CCCCCCCCN1C(=O)C=CC1=O)C(=O)N[C@@H](CC(=O)O)C(=O)N[C@@H](CCCNC(=N)N)C(=O)N[C@@H](C)C(=O)NCC(=O)NCC(=O)NCC(=O)NCC(=O)N[C@@H](CCCNC(=N)N)C(=O)NCC(=O)N[C@@H](CC(=O)O)C(=O)O [X8] (X82-RGADRAGGGGRGD-OH)	–
–	–	–	–	–	–	–	36.96 ± 0.25 h	0.0336 ± 0.0083 mg/L/h	CSCC[C@H](NC(=O)[C@H](Cc1c[nH]cn1)NC(=O)[C@H](CCC(N)=O)NC(=O)[C@H](CCCNC(=N)N)NC(=O)CCN1C(=O)C=CC1=O)C(=O)N[C@@H](Cc1ccccc1)C(=O)N[C@@H](CO)C(=O)N[C@@H](Cc1c[nH]c2ccccc12)C(=O)N[C@H](C(=O)N[C@@H](CC(C)C)C(=O)N[C@@H](C)C(=O)N[C@@H](CCCNC(=N)N)C(=O)N[C@@H](CC(N)=O)C(=O)N[C@@H](CC(=O)O)C(=O)N[C@@H](CCC(N)=O)C(=O)N[C@@H](CCC(=O)O)C(=O)N[C@@H](CCC(=O)O)C(=O)N[C@@H](CCCNC(=N)N)C(=O)NCC(=O)N[C@@H](CC(=O)O)C(=O)O)C(C)C [P1] ({Propanoyl(3-maleimido)}-RQHMFSWVLARNDQEERGD-OH; C-terminus assumed)	–
–	–	–	–	31600 ± 8230 ng·h/mL	0.528 mL/min/kg	56.5 ± 11.6 h	39.16 ± 0.31 h	–	C[C@H](NC(=O)CNC(=O)[C@H](CCCNC(=N)N)NC(=O)CCN1C(=O)C=CC1=O)C(=O)N[C@@H](CC(=O)O)C(=O)N[C@@H](CCCNC(=N)N)C(=O)N[C@@H](C)C(=O)N[C@@H](CCC(=O)O)C(=O)N[C@@H](C)C(=O)N[C@@H](C)C(=O)N[C@@H](C)C(=O)N[C@@H](CCCCN)C(=O)N[C@@H](CCCNC(=N)N)C(=O)NCC(=O)N[C@@H](CC(=O)O)C(=O)O [P11] ({Propanoyl(3-maleimido)}-RGADRAEAAAKRGD-OH)	–
–	–	–	–	31200 ± 8090 ng·h/mL	0.535 mL/min/kg	55.8 ± 13.4 h	38.67 ± 0.27 h	–	C[C@H](NC(=O)[C@H](CCCNC(=N)N)NC(=O)[C@H](CC(=O)O)NC(=O)CNC(=O)[C@H](CCCNC(=N)N)NC(=O)CCCCCN1C(=O)C=CC1=O)C(=O)NCC(=O)NCC(=O)NCC(=O)NCC(=O)N[C@@H](CCCNC(=N)N)C(=O)NCC(=O)N[C@@H](CC(=O)O)C(=O)O [P8] ({Hexanoyl(6-maleimido)}-RGDRAGGGGRGD-OH; C-terminus assumed)	–
27700 ± 7510 ng·h/mL	49.6 ± 9.77 h	0.602 mL/min/kg	34.38 ± 0.25 h	–	–	–	–	–	C[C@H](NC(=O)CNC(=O)[C@H](CCCNC(=N)N)NC(=O)CCCCOCCOCCOCCN1C(=O)C=CC1=O)C(=O)N[C@@H](CC(=O)O)C(=O)N[C@@H](CCCNC(=N)N)C(=O)N[C@@H](C)C(=O)NCC(=O)NCC(=O)NCC(=O)NCC(=O)N[C@@H](CCCNC(=N)N)C(=O)NCC(=O)N[C@@H](CC(=O)O)C(=O)O [X66] (X33-RGADRAGGGGRGD-OH)	–

Structure (SMILES)	AUC(0-inf)	MRT inf	clearance	half-life (T1/2β (half-life))	AUC(0-inf) (read-out: AUC0-∞)	clearance (read-out: CL (converted))	MRT inf (read-out: MRT0-∞)	half-life [1]	AUC0-∞	half-life
C[C@H](NC(=O)[C@H](CCCNC(=N)N)NC(=O)[C@H](CC(=O)O)NC(=O)[C@H](CCC(=O)O)NC(=O)CNC(=O)[C@H](CCCNC(=N)N)NC(=O)CCN1C(=O)C=CC1=O)C(=O)NCC(=O)NCC(=O)NCC(=O)NCC(=O)N[C@@H](CCCNC(=N)N)C(=O)NCC(=O)N[C@@H](CC(=O)O)C(=O)O [P5] ({Propanoyl(3-maleimido)}-RGEDRAGGGGRGD-OH; C-terminus assumed)	29200 ± 7880 ng·h/mL	52.4 ± 12.2 h	0.57 mL/min/kg	–	–	–	–	–	–	36.28 ± 0.25 h
